Measured values from US20260001910A1, “PEPTIDES AND USES THEREOF” (PreveCeutical Medical Inc., priority 2021, published 2026).

Columns and labels:
Format in all cases: cell-based, human
Snail-2 mRNA = assay: Real time RT-PCR mRNA expression (EMT marker)
From the text: (§1) The real-time reverse transcription polymerase chain reaction (RT-PCR) uses fluorescent reporter molecules to monitor the production of amplification products during each cycle of the PCR reaction. This combines the nucleic acid amplification and detection steps into one homogeneous assay and use of appropriate chemistries and data analysis eliminates the need for Southern blotting or DNA sequencing for amplicon identification. Its simplicity, specificity and sensitivity, together with its potential for high throughput and the ongoing introduction of new chemistries, more reliable instrumentation and improved protocols, has made real-time RT-PCR the benchmark technology for the detection and/or comparison of RNA levels.′
(§2) In order to detect and quantify the expression of specific genes at mRNA level, real-time reverse transcriptase polymerase chain reaction (Real time RT-PCR) was performed. Total RNA of samples was isolated and purified using the PureLink® RNA Mini Kit (Life technologies). The concentration of total RNA was detected by NanoDrop 2000 Spectrophotometer (Thermo Scientific). The total RNA (2000 ng) was reverse transcribed using the High-Capacity cDNA Reverse Transcription Kit (Applied Biosystems™).
(§3) The primers of target genes were TaqMan™ Gene Expression Assay for human PLAU (Hs01547054_m1), MMP-2 (Hs01548727_ml), MMP-9 (Hs00957562_m1), Snail-1 (Hs00195591_m1), Snail-2 (Hs00161904_m1), N-cadherin (Hs00983056_m1) and Twist (Hs01675818_s1). Relative quantification was done by reference to 18S ribosomal RNA (18S rRNA) and analysed using the comparative critical threshold (Ct) method
(§4) The mRNA expression of MMPs was measured using qRT-PCR. This was tested three independent times; the results are shown in Tables 8, 9 and 10 for U251, U87 cells and 081024 cells respectively. Results are reported as percent of the control cells (no treatment). SEQ ID NO.
(§5) Epithelial-mesenchymal transition (EMT) is the process by which epithelial cells acquire a migratory (metastatic) phenotype and so EMT is associated with cancer metastasis, cancer cell stemness, chemoresistance and immune resistance. Therefore, the determination of the mRNA expression of EMT markers is a valuable tool to evaluate invasion potential of cancer cells.
(§6) The ‘Snail’ superfamily is involved in cell differentiation and survival, two processes central in cancer research. Snail-1 has a pivotal role in the regulation of epithelial-mesenchymal transition (EMT) and Snail-1 expression is associated with poor prognosis in metastatic cancer, and tumours with elevated Snail-1 expression are harder to treat. The significance of Snail-1 as a prognostic indicator, its involvement in the regulation of EMT and metastasis, and its roles in both drug and immune resistance point out that Snail-1 is an attractive target for tumour growth inhibition and a target for sensitization to cytotoxic drugs (Kaufhold et al., 2014). Twist is transcriptionally active during cell differentiation and lineage determination. During the establishment of cancer metastases by EMT, Twist acts independently of Snail to suppress E-cadherin and to upregulate N-cadherin (CDH-2) and fibronectin. Snail-2 (Slug) is another member of the SNAIL family of transcriptional activators and serves an important role in suppressing the epithelial phenotype in numerous cancer cells (Iwadate, 2016).

Twist mRNA = assay: Real time RT-PCR mRNA expression (EMT marker)
From the text: as §1, §2, §3, §4, §5, §6

CDH-2 (N-cadherin) mRNA = assay: Real time RT-PCR mRNA expression (EMT marker)
From the text: as §1, §2, §3, §4, §5, §6

Snail-1 mRNA = assay: Real time RT-PCR mRNA expression (EMT marker)
From the text: as §1, §2, §3, §4, §5, §6

uPA = assay: Casein-plasminogen zymography of conditioned media (uPA production); conditions: for uPA production: conditioned medium, compared to no-peptide control
From the text: To assess whether the peptide SEQ ID NO. 1 impacted MMP-2, MMP-9 and uPA production Zymography was used.
Zymography is a technique for studying hydrolytic enzymes on the basis of substrate degradation (Vandooren, J. et al. 2013). The in-gel zymography hydrolytic enzymes are separated by their molecular weights and detected by their ability to degrade a substrate. To detect the activity of MMP-2 and MMP-9 in various cell lines, conditioned media were collected in 3 independent experiments and analysed by gelatin zymography to quantify the level of gelatin digestion, which reflects MMP-2 and MMP-9 activity and production. Cascin-Plasminogen zymography was conducted to determine the activity level of uPA in the conditioned medium from various cell lines. Active uPA converts plasminogen into plasmin which then digests casein, thus clear bands where digestion of casein have occurred indirectly represent uPA activity.
The effect of the peptides on matrix protease production was tested using in-gel zymography. If the substrate included in the gel is gelatin, the enzymes detected are gelatinases: MMP-2 and MMP-9 (the latter is often of low abundance). If the gel contains casein and plasminogen, the enzymes tested are urokinase plasminogen activators (uPA); uPA is a therapeutic target in GBM.
An equal amount of protein from each sample was mixed with 5 μL of Laemmli buffer (0.01% Bromophenol Blue (W/V), 5% SDS (W/V), 22% glycerol (V/V), 14% 0.5 M Tris pH 6.8 (V/V)) and loaded onto a 10% polyacrylamide gel co-polymerized with 1 mg/ml of gelatin, and electrophoresed at 120V for 2 hours on ice. The gel was incubated in […] solution (Triton X-100 2.5% (V/V), 1 M Tris pH 7.5 5% (V/V), 0.5 M CaCl2) 1% (W/V) at room temperature overnight on an orbital shaker. The gel was incubated in a second solution for 3 hours at 37° C. The gel was then stained with Coomassie blue solution (Coomassie blue 0.25%, methanol 45%, acetic acid 10%) and destained in methanol 25% (V/V), acetic acid 10% (V/V) destaining solution until clear bands against the dark background appeared around 72 kDa and 95 kDa, representing MMP-2 and MMP-9 activity, respectively. Clear bands around 50 kDa appeared against the dark background representing uPA activity. The gels were scanned, and uPA, MMP-2 and MMP-9 were quantified by densitometry using NIH Image J software.
SEQ ID NO. 1 was compared to a control containing no peptide to evaluate whether the peptide can reduce the production of matrix proteinases. A reduction in the production of matrix proteinases may be anticipated to result in comparatively less degradation of the extra-cellular matrix and so this could be one pathway by which the invasion potential could be reduced.

[1] = 081024 cells, baseline expression level = 1
[2] = U87 cells, baseline expression level = 1
[3] = U251 cells, relative to untreated control, 18S rRNA reference

CC(C)C[C@@H](NC(=O)[C@@H](Cc1ccccc1)NC(=O)CNC(=O)CNC(=O)[C@H](N)Cc1ccc(O)cc1)C(=O)N[C@H](CCCNC(=N)N)C(=O)N[C@H](CCCNC(=N)N)C(N)=O [SEQ ID NO. 1, tyr-Gly-Gly-phe-leu-arg-arg-NH2]
Snail-2 mRNA expression (Snail-2 mRNA; [1]): 0.78
Snail-2 mRNA expression (Snail-2 mRNA; [2]): 1.05
Snail-2 mRNA expression (Snail-2 mRNA; [3]): 1.06
Twist mRNA expression (Twist mRNA; [1]): 0.73
Twist mRNA expression (Twist mRNA; [2]): 0.70
Twist mRNA expression (Twist mRNA; [3]): 0.87
CDH-2 mRNA expression (CDH-2 (N-cadherin) mRNA; [1]): 0.72
CDH-2 mRNA expression (CDH-2 (N-cadherin) mRNA; [2]): 0.83
CDH-2 mRNA expression (CDH-2 (N-cadherin) mRNA; [3]): 0.88
Snail-1 mRNA expression (Snail-1 mRNA; [1]): halved the expression of Snail-1 mRNA with statistical significance
Snail-1 mRNA expression (Snail-1 mRNA; 081024 cells, baseline expression level = 1, listed as SEQ ID NO.1): 0.53
Snail-1 mRNA expression (Snail-1 mRNA; [2]): 0.65
Snail-1 mRNA expression (Snail-1 mRNA; [3]): 1.11
uPA production (uPA; 081024 cells): 97.57 ± 13.7
uPA production (uPA; U87 cells): 109.1 ± 12.41
uPA production (uPA; U251 cells): 95.22 ± 12.83
effect on production of uPA (in words) (uPA; overall, versus no-peptide control): did not decrease the production
